# ChEMBL document CHEMBL1201862, “PubChem BioAssay data set” (2004)
#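 Dose response: 5 concentrations. Exposure: 48 h. Format: 96-well plates. Endpoint: linear interpolation; highest concentration if not reached. GI50 = concentration required for 50% inhibition of growth.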 Calls of active or inactive are those of the source. Rule as the data show it: active = GI50 up to about 1.1 µM and inactive = higher.
# Legend:
# Test in all cases: DTP human tumour cell line panel, 48 h
# OVCAR-5 = test system: OVCAR-5
# CCRF-CEM = test system: CCRF-CEM
# ACHN = test system: ACHN
# SF-295 = test system: SF-295
# SK-MEL-28 = test system: SK-MEL-28
# M14 = test system: M14
# RXF 393 = test system: RXF 393
# NCI-H460 = test system: NCI-H460
# SK-OV-3 = test system: SK-OV-3
# HOP-92 = test system: HOP-92
# EKVX = test system: EKVX
# MOLT-4 = test system: MOLT-4
# KM12 = test system: KM12
# A549 = test system: A549
# HL-60 = test system: HL-60
# A498 = test system: A498
# RPMI-8226 = test system: RPMI-8226
Compound,GI50 (OVCAR-5),GI50 (CCRF-CEM),GI50 (ACHN),GI50 (SF-295),GI50 (SK-MEL-28),GI50 (M14),GI50 (RXF 393),GI50 (NCI-H460),GI50 (SK-OV-3),GI50 (HOP-92),GI50 (EKVX),GI50 (MOLT-4),GI50 (KM12),GI50 (A549),GI50 (HL-60),GI50 (A498),GI50 (RPMI-8226)
Cc1ccc(NC(=O)CC/C(CC(=O)C(C)(C)C)=N\Nc2ccc([N+](=O)[O-])cc2[N+](=O)[O-])cc1C,> 100 µM (inactive),25.2 µM (inactive),45.8 µM (inactive),32.6 µM (inactive),> 100 µM (inactive),0.0129 µM (active),67.5 µM (inactive),56.8 µM (inactive),> 100 µM (inactive),27 µM (inactive),> 100 µM (inactive),28.8 µM (inactive),67.5 µM (inactive),37.7 µM (inactive),> 10 µM (inactive),–,–
NC1=NN(c2ccccc2)C(=O)C1C(=O)CCC(=O)Nc1cccc(Cl)c1 (stereo unspecified),> 100 µM (inactive),> 100 µM (inactive),> 100 µM (inactive),> 100 µM (inactive),> 100 µM (inactive),> 100 µM (inactive),> 100 µM (inactive),> 100 µM (inactive),> 100 µM (inactive),> 100 µM (inactive),> 100 µM (inactive),–,> 100 µM (inactive),> 100 µM (inactive),> 100 µM (inactive),> 100 µM (inactive),–
CCOc1ccc(/C(Cl)=C(\C=O)c2ccc(OC)c(OC)c2)cc1OCC,> 100 µM (inactive),12.7 µM (inactive),37.1 µM (inactive),72.6 µM (inactive),> 100 µM (inactive),> 100 µM (inactive),31.4 µM (inactive),83.4 µM (inactive),> 100 µM (inactive),58.2 µM (inactive),65.2 µM (inactive),27.9 µM (inactive),91.4 µM (inactive),46.9 µM (inactive),21.7 µM (inactive),–,28.1 µM (inactive)
COc1cc(C2C(Cl)C(=O)N2NC(=O)Cc2ccccc2)ccc1O (stereo unspecified),> 100 µM (inactive),23.9 µM (inactive),93.5 µM (inactive),> 100 µM (inactive),> 100 µM (inactive),> 100 µM (inactive),59 µM (inactive),> 100 µM (inactive),> 100 µM (inactive),–,> 100 µM (inactive),24.6 µM (inactive),91 µM (inactive),> 100 µM (inactive),28.1 µM (inactive),–,32.6 µM (inactive)
N#CC(c1ccccn1)c1nc2ccccc2[nH]1 (stereo unspecified),> 100 µM (inactive),> 100 µM (inactive),> 100 µM (inactive),> 100 µM (inactive),> 100 µM (inactive),> 100 µM (inactive),–,85.5 µM (inactive),> 100 µM (inactive),–,> 100 µM (inactive),47.5 µM (inactive),–,> 100 µM (inactive),32.3 µM (inactive),> 100 µM (inactive),54 µM (inactive)
O=c1cc(-c2ccccc2)nc(/C=C(\O)c2ccncc2)n1-c1ccccc1,> 100 µM (inactive),> 100 µM (inactive),> 100 µM (inactive),> 100 µM (inactive),> 100 µM (inactive),> 100 µM (inactive),> 100 µM (inactive),> 100 µM (inactive),> 100 µM (inactive),> 100 µM (inactive),> 100 µM (inactive),–,> 100 µM (inactive),> 100 µM (inactive),> 100 µM (inactive),> 100 µM (inactive),–
COc1ccc(C(C2=C(O)CC(C)OC2=O)C2=C(O)CC(C)OC2=O)cc1 (stereo unspecified),> 100 µM (inactive),> 100 µM (inactive),> 100 µM (inactive),> 100 µM (inactive),> 100 µM (inactive),> 100 µM (inactive),–,> 100 µM (inactive),–,–,> 100 µM (inactive),> 100 µM (inactive),> 100 µM (inactive),> 100 µM (inactive),–,–,> 100 µM (inactive)
OCC(O)C(OC1OC(CO)C(O)C(O)C1O)c1nn(-c2ccc(F)cc2)c2nc3cc(Cl)c(Cl)cc3cc12 (stereo unspecified),> 100 µM (inactive),> 100 µM (inactive),> 100 µM (inactive),> 100 µM (inactive),> 100 µM (inactive),> 100 µM (inactive),> 100 µM (inactive),> 100 µM (inactive),> 100 µM (inactive),–,> 100 µM (inactive),> 100 µM (inactive),> 100 µM (inactive),–,–,> 100 µM (inactive),> 100 µM (inactive)
COc1ccc2[nH]c3c4c(c5cc(C(C)(C)C)ccc5c3c2c1)C(=O)N(c1ccccc1)C4=O,> 100 µM (inactive),> 10 µM (inactive),–,> 100 µM (inactive),> 100 µM (inactive),54.3 µM (inactive),> 100 µM (inactive),> 100 µM (inactive),> 100 µM (inactive),–,> 100 µM (inactive),> 100 µM (inactive),> 100 µM (inactive),> 100 µM (inactive),> 100 µM (inactive),24.9 µM (inactive),> 100 µM (inactive)
